According to US20250189516A1, “PHOSPHORYLATION OF P53 AS A PROGNOSTIC OR DIAGNOSTIC MARKER FOR THE TREATMENT OF SENESCENT CELLS IN A MAMMAL” (CLEARA BIOTECH B.V., priority 2022, published 2025):
Square brackets hold non-standard residues; d marks the D form. Ends that are not written are not given here.

Assays:
[1] = test system: CRC29 colorectal cancer organoid line, liver metastases; test: Colorectal cancer organoid CRC29 caecum implant model, liver metastasis (FIG. 9); assay type: in vivo, immunodeficient mice; settings: 50 mg/kg 5-FU, 3 doses of 2.5 mg/kg CL04183, versus PBS
Description: The colorectal cancer organoid line CRC29 was implanted in the caecum of immunodeficient mice. Two weeks after transplantation the animals were treated with either ‘5-Fluorouracil (5-FU) or PBS. […] A) The livers were stained for KU80 or human nucleoli to detect human cancer cells in the mouse organs, together with p-p53 (T55) or PML. B) The number of liver metastases per stained section was counted by eye.
Mouse experiments were performed after approval from the Dutch animal ethics committee (WP number 9124-1-03). NOD.Cg-Prkdcscid Il2rgtm1Wjl/SzJ/J mice were purchased from Charles River and maintained in a pathogen-free environment. The animals were anaesthetized using 75 mg/kg ketamine and 0.5 mg/kg dexmedetomidine injected i.p., while 5 mg/kg carprofen was injected s.c. as analgesia. Subsequently, CRC29 organoids (250000 cells) containing a firefly luciferase construct were transplanted into the caecum in a 10 μl collagen droplet. Two weeks after tumor cell implatation the animals were treated with either 50 mg/kg ‘5-Fluorouracil (5-FU) or PBS. […] Four weeks after transplantation, the mice were sacrificed, and tissues were collected for further processing.

[2] = test system: human breast cancer cell lines; test: MTS viability assay in human breast cancer cell lines versus number of PML bodies (FIG. 7); assay type: cell-based
Source text: Spearman's rank correlation coefficient (0.93) given; B) Correlation of open P53 (Pab240 clone) and P53 pSer392 (EP155Y clone) staining in a panel of eight human breast cancer lines including luminal, Her2 positive and triple-negative. Spearman's rank correlation coefficient (0.88) given; and C) Association between PML body count/nuclear pixel (to correct for variation in nucleus size between lines) and nuclear P53 pSer392 staining intensity in eight human breast cancer lines plotted against the effective dose inducing cell death in 50% of the population (ED50, as measured by MTS assay) after treatment with CL04177 for these cell lines. Sensitive cell lines are highlighted by the box.
To study the selectivity of different therapies for cancer cells, colorimetric-based cytotoxicity assays were performed two days following treatments. […] The resulting colorimetric reactions were read at 490 nm on a Microplate Absorbance Reader. Relative survival was determined by normalization of the results to Mock (=100% alive). […]
Six days after treatment, cells were incubated with 10 μl CellTiter 96® AQueous One Solution Cell Proliferation Assay (Promega) for 1 hour at 37° C. to perform an MTS assay. Subsequently, absorbance was measured at 490 nm using a Spectramax M5e.

[3] = test system: MDA-MB-231 firefly luciferase-containing cells, metastases; test: Anti-metastatic activity in vivo in an orthotopic TNBC model (FIG. 8); parameters: species or system NSG mice
Description: PBS-treated mice developed metastatic growth visible by bioluminescence.
Approval for this study was obtained by the local University Animal Experimental Committee at the University Medical Center Utrecht (IVD-UMC; WP numbers 9124-1-02 and −05). MDA-MB-231 firefly luciferase-containing cells were transplanted orthotopically into the exposed inguinal mammary fat pad as single cells at a density of 1 millionn cells in 50 ul of a medium into NSG mice (NOD.Cg-PrkdcIL2rgmWij/Szj) (stock 005557). Carprofen was injected s.c. as analgesia following the surgery. Animals were purchased from Charles River and maintained in a pathogen-free environment.
Tumor growth dynamics were quantified in mice with established tumors (>50 mm3). […] After 2 weeks of recovery, mice were sacrificed. For in vivo dosing, the peptides were dissolved in PBS. We used 11 mice per group that were randomly assigned to the different treatment groups before the start of the experiment.
To visualize tumor burden in a live mouse, mice were injected with luciferin substrate i.p. at 150 mg/kg, and imaged under isoflurane anesthesia 15 min later using a bioluminescence imager. The M3Vision software was used to analyze the bioluminescence signal by taking a region of interest (ROI) around the primary tumor to evaluate the BL signal from the tumor or around the upper abdomen and chest of the mouse to evaluate the signal from metastases. The signal was measured in photons/s/cm2.

[4] = test system: triple-negative breast cancer cell line MDAMB231; test: Immunofluorescence of MDAMB231 cells surviving the LD50 dose (FIG. 13); assay type: cell-based, human; settings: staining two days later, survivors have low PML and p53 (S392)
Description: A) The triple-negative breast cancer cell line MDAMB231 was treated with the LD50 dose, determined in previous assays. Two days later, an immunofluorescence staining was performed for the indicated proteins. B) Therapy-survivors are made up primarily of cells with low levels of these proteins.
(§1) To study the selectivity of different therapies for cancer cells, colorimetric-based cytotoxicity assays were performed two days following treatments. Cells from several different cancer types (breast, ovarian, pancreas, gastric lung and liver cancer) were cultured in 96-wells plates with 4000 cells per well. These were treated with a serial dilution of compounds in triplicates and mock-treatments ([…], since peptides were dissolved therein). The AQeousOne Solution Cell Proliferation Assay Kit was used to assess cell viability, according to the manufacturer's instructions. In short, the old medium was removed and 100 μl of fresh medium and 10 μl of CellTiter AQueousOne solution were added to each well. The plates were incubated for 1 hour at 37° C. The resulting colorimetric reactions were read at 490 nm on a Microplate Absorbance Reader. Relative survival was determined by normalization of the results to Mock (=100% alive). […]

[5] = test system: cancer cell lines with wildtype or "open" p53 conformation; test: Viability curves / ED50 in cell lines from several types of cancer by p53 conformation (FIG. 14); assay type: cell-based; settings: cancers with genetic mutations in p53, versus wildtype p53 conformation
Source text: FIG. 14 The CL04177 peptide targets cells from multiple types of cancer, with a higher selectivity towards cell lines that are genetically predisposed towards expressing p53 in its “open” conformation through TP53 mutations. Viability curves exemplifying the response to the peptide for two cell lines, A) A2780 that has a wildtype p53 conformation and B) H23, which contains p53 with an “open” conformation based on genetic mutations in p53.
as §1

[6] = molecular target: p53-TAD2 phosphorylated at T55 or S46 (Homo sapiens, UniProt P04637); test: Fluorescence anisotropy binding assay with FITC-labelled p53 peptides (FIG. 3); settings: versus non-phosphorylated p53-TAD2
Description: Data was acquired on a ClarioStar Plus plate reader. Endpoint measurement with 200 flashes per well were performed. An excitation filter with 482 nm wavelength and emission filter with 530 nm were used and gain adjustment as well as focal height adjustment were performed for each measurement. Fluorescence intensity, parallel fluorescence polarization and perpendicular fluorescence polarization were recorded. Data analysis was performed using MARS Version 3.4 (BMG), Microsoft Excel and GraphPad Prism Version 8.
For measurements, 116 μl of a solution of the specific Cleara peptides (ranging from 1 to 100 μM) were prepared. Subsequently 4 μl of FITC-labelled p53 peptides (stock concentration 15 μM, resulting in a final concentration of 500 nM) were added. 35 μl were then transferred in each well of the 384-well plate. Measurements were performed in triplicates. If necessary, this setup was extended with lower concentrations in order to cover strong interactions.
The anisotropy (r) is defined as the ratio of the polarized component to the total intensity (IT):
where the excitation is polarized along the z-axis, emission from the fluorophore is symmetric around the z-axis, so Ix=Iy and […], resulting in:
The obtained anisotropy values for each concentration of CL peptide can be used to determine the binding affinity, by applying following fitting function: […]

[7] = daily s.c. for one week, 2.5 mg/kg CL04183, 10 mg/kg CL04177, versus PBS

Sequence of p53-TAD2 phosphorylated at T55 or S46 (P04637 37-57 limits assumed): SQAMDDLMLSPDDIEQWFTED

## O=c1[nH]cc(F)c(=O)[nH]1 [5-FU, 5-Fluorouracil]
[1]
  effect on liver metastases: specifically counteract liver metastases

## RKKASSKIEAEILDAFSQNWRRKRPPRRRQRRKKRG ([dR][dK][dK][dA][dS][dS][dK][dI][dE][dA][dE][dI][dL][dD][dA][dF][dS][dQ][dN][dW][dR][dR][dK][dR][dP][dP][dR][dR][dR][dQ][dR][dR][dK][dK][dR]G; listed as Homo sapiens) [CL04177, retro-inverso peptide derived from human FOXO4]
[2]; breast cancer lines with few PML bodies
  sensitivity of cell lines to the peptide: less sensitive
[2]; triple-negative lines with high levels of PML bodies
  sensitivity of cell lines to the peptide: highly sensitive
[3]; FIG. 8
  effect on liver metastases: specifically counteract liver metastases
[3]; [7]
  incidence of liver metastasis (bioluminescence of tumor cells in the extracted livers): decreased the incidence of liver metastasis
  incidence of visible metastasis (bioluminescence): decreased the incidence of visible metastasis
[4]
  cell population targeted: targets cells with increased PML bodies and phosphorylated p53
[5]
  sensitivity (ED50s) of cancers predisposed towards "open" p53: more sensitive

B1: FOXO4: fragment of human FOXO4 (Uniprot ID P98177) from amino acid 86 to 207, recombinant forkhead domain (protein)
chain: GAVTGPRKGGSRRNAWGNQSYAELISQAIESAPEKRLTLAQIYEWMVRTVPYFKDKGDSNSSAGWKNSIRHNLSLHSKFIKVHNEATGKSSWWMLNPEGGKSGKAPRRRAASMDSSSKLLRG
[6]
  affinity to p53-TAD2 when phosphorylated at T55 or S46: substantially higher affinity
